Paper PMC8453901, “GLPG1205, a GPR84 Modulator: Safety, Pharmacokinetics, and Pharmacodynamics in Healthy Subjects” (Clinical Pharmacology in Drug Development, 2021)
“Also recorded” adds a separate entry of the source. Where two headings read alike, the source gives them in different places.

Test: Study 2 part 1: effect of aging on pharmacokinetics, 50 mg once daily for 14 days
Format: in vivo, human
Details: for Tmax / Cmax / AUC(0-t) / concentration at 24 h / AUC(0-inf) / half-life: male, human, plasma, oral, 50 mg; for AUC(0-t): read-out: AUC0–24h; for concentration at 24 h: read-out: C24h; for half-life: read-out: t1/2,λz (converted)
Method: During study 2, GLPG1205 50 mg or matching placebo was administered as capsules in the morning 30 minutes after the start of a standard breakfast. Subjects were kept in‐house from the evening of day –1 to ≈26 hours after the first dose (day 2), and from the evening of day 13 until day 15. Administration of the study drug was performed daily at the clinical pharmacology unit. Subjects returned for a follow‐up visit at day 35.
In part 1, 24 healthy male subjects were matched into 3 cohorts based on body weight: Cohort A comprised 8 subjects aged 65–74 years, inclusive; cohort B comprised 8 subjects aged ≥75 years (1:1 weight matched with cohort A subjects [± 5 kg]); and cohort C comprised 8 subjects aged 18 to 50 years, inclusive (1:1 weight matched with cohort A subjects [± 5 kg]). All cohorts received GLPG1205 50 mg once daily or matching placebo, in a 3:1 ratio, for 14 days. In the open‐label second part of study 2, 8 subjects (cohort D) aged 65 to 74 years, inclusive, were included to characterize the PK profile after a loading dose of GLPG1205 250 mg on day 1 followed by multiple doses of GLPG1205 50 mg once daily from day 2 to day 14.
In the SAD part of study 1, blood samples (2 mL) for PK assessments were obtained before dosing and at multiple time points on the day of study drug administration (before dosing and 0.5, 1, 2, 4, 6, 8, and 12 hours after dosing) and at 24, 48, and 72 hours after dosing. The predose sample for the next dose level was also used in PK analysis (168 hours after dosing). […] In the MAD part of study 1, blood samples (2 mL) were obtained on days 1, 2, 4, 5, 6, 8, 10, 12, 14, 15, 16, 17, and 18 and at follow‐up (approximately 7 to 10 days after the last dose). These PK blood samples were taken after dosing (1, 2, 4, 6, 8, 12, and 24 hours) on day 1; before dosing on days 4, 6, 8, and 10; and after dosing (1, 2, 4, 6, 8, 12, 24, 72, and 96 hours) on day 14. The following additional PK blood samples were also taken: cohort C, before dosing on day 5; and cohorts D and E, before dosing on day 12. Urine samples were obtained from fractions collected over 6‐ or 12‐hour periods after dosing on days –1, 1, 2, 13, 14, and 15; samples obtained on days –1 and 13 were for cytochrome P450 (CYP) induction analysis only. In study 2, blood samples (2 mL) were obtained on days 1, 2, 5, 7, 10, 14, 15, 17, and 20 and at follow‐up (approximately 21 days after end of study medication administration). Blood samples were taken before dosing and at 1, 2, 4, 6, 8, 12, and 24 hours after drug administration on days 1 and 14 and before dosing on other sampling days.
GLPG1205 plasma concentrations were determined using a validated liquid chromatography with tandem mass spectrometry method. After a protein precipitation with methanol, a chromatographic separation was performed on a Kinetex C18 column (50×3.0 mm, 2.6 μm; Phenomenex, Torrance, California) set at 40°C by using a Nexera high‐performance liquid chromatography (HPLC) system (Shimadzu, Kyoto, Japan) or an Infinity HPLC system (Agilent Technologies, Diegem, Belgium) in isocratic elution mode. A QTRAP6500, QTRAP4000, or API4000 mass spectrometer (AB Sciex, Nieuwerkerk aan den Ijssel, The Netherlands) equipped with a TurboIonSpray probe operated in the multiple reaction monitoring in positive mode was used for quantification. The calibration curves in plasma were linear over the range of 1 to 1000 ng/mL with 1/x^2 as weighting factor. The limit of quantification of the assay in the plasma samples was set at 1 ng/mL.
PK calculations were performed using Phoenix WinNonlin 6.2 (Pharsight Corporation, Palo Alto, California). […] AUC0‐inf was calculated from the area under the plasma concentration‐time curve from time 0 until the time corresponding with the last observed quantifiable concentration + Ct/λz, where Ct was the last observed quantifiable concentration and λz the first‐order terminal rate constant. […]

[1] = 50 mg once daily, cohort A 65-74 y, day 14, mean (CV%), N = 4
[2] = 50 mg once daily, cohort A 65-74 y, day 1, mean (CV%)
[3] = 50 mg once daily, cohort A 65-74 y, day 14, mean (CV%)
[4] = 50 mg once daily, cohort B ≥75 y, day 1, mean (CV%)
[5] = 50 mg once daily, cohort B ≥75 y, day 14, mean (CV%)
[6] = 50 mg once daily, cohort C 18-50 y, day 1, mean (CV%)
[7] = 50 mg once daily, cohort C 18-50 y, day 14, mean (CV%)

**Q.** For `O=c1nc(OC[C@@H]2COCCO2)cc2n1CCc1cc(C#CC3CC3)ccc1-2` [GLPG1205, 9‐cyclopropylethynyl‐2‐((S)‐1‐[1,4]dioxan‐2‐ylmethoxy)‐6,7‐dihydropyrimido[6,1‐a]isoquinolin‐4‐one], which “effect of age on GLPG1205 exposure” value (50 mg once daily for 14 days, 3 age groups) is on record?
**A.** The value was “Age did not affect GLPG1205 exposure; also recorded: age has no effect on GLPG1205 exposure; also recorded: Age had no effect on the PK”.

**Q.** What about the “Rac (accumulation ratio)” value (50 mg once daily, cohort A 65-74 y, AUC0-24h day 14/day 1 (Table 5A)) of the same compound?
**A.** The value was 6.16 (0.74).

**Q.** What about the “AUC0–inf” value [1] of the same compound?
**A.** Its value is 338 (26.0) ^N = 4 μg • h/mL.

**Q.** What about the “Rac (accumulation ratio)” value (50 mg once daily, cohort B ≥75 y, AUC0-24h day 14/day 1) of the same compound?
**A.** The value was 5.77 (1.34).

**Q.** And the “Rac (accumulation ratio)” value (50 mg once daily, cohort C 18-50 y, AUC0-24h day 14/day 1)?
**A.** Its value is 5.02 (1.66).

**Q.** And the Tmax (50 mg once daily for 14 days, all 3 age groups)?
**A.** Its Tmax is 2 to 3 h.

**Q.** And the Cmax [2]?
**A.** The Cmax was 557 ng/mL.

**Q.** And the AUC(0-t) [2]?
**A.** Its AUC(0-t) is 8920 ng·h/mL.

**Q.** And the concentration at 24 h [2]?
**A.** The concentration at 24 h was 334 ng/mL.

**Q.** And the Cmax [3]?
**A.** The Cmax was 2750 ng/mL.

**Q.** What about the AUC(0-inf) [1] of the same compound?
**A.** The AUC(0-inf) was 338000 ng·h/mL.

**Q.** And the AUC(0-t) [3]?
**A.** Its AUC(0-t) is 54200 ng·h/mL.

**Q.** And the concentration at 24 h [3]?
**A.** The concentration at 24 h was 2440 ng/mL.

**Q.** And the half-life [3]?
**A.** The half-life was 71.9 h.

**Q.** What about the Cmax [4] of the same compound?
**A.** Its Cmax is 440 ng/mL.

**Q.** What about the AUC(0-t) [4] of the same compound?
**A.** Its AUC(0-t) is 6900 ng·h/mL.

**Q.** What about the concentration at 24 h [4] of the same compound?
**A.** Its concentration at 24 h is 290 ng/mL.

**Q.** What about the Cmax [5] of the same compound?
**A.** Its Cmax is 1960 ng/mL.

**Q.** What about the AUC(0-inf) (50 mg once daily, cohort B ≥75 y, day 14, mean (CV%), N = 4) of the same compound?
**A.** Its AUC(0-inf) is 236000 ng·h/mL.

**Q.** And the AUC(0-t) [5]?
**A.** Its AUC(0-t) is 39300 ng·h/mL.

**Q.** What about the concentration at 24 h [5] of the same compound?
**A.** Its concentration at 24 h is 1820 ng/mL.

**Q.** And the half-life [5]?
**A.** Its half-life is 64.5 h.

**Q.** And the Tmax (50 mg once daily, cohort B ≥75 y, day 14, median (minimum-maximum))?
**A.** Its Tmax is 3 h.

**Q.** And the Cmax [6]?
**A.** The Cmax was 476 ng/mL.

**Q.** And the AUC(0-t) [6]?
**A.** The AUC(0-t) was 7740 ng·h/mL.

**Q.** And the concentration at 24 h [6]?
**A.** Its concentration at 24 h is 301 ng/mL.

**Q.** And the Cmax [7]?
**A.** Its Cmax is 1950 ng/mL.

**Q.** And the AUC(0-inf) (50 mg once daily, cohort C 18-50 y, day 14, mean (CV%), N = 5)?
**A.** Its AUC(0-inf) is 194000 ng·h/mL.

**Q.** And the AUC(0-t) [7]?
**A.** Its AUC(0-t) is 37700 ng·h/mL.

**Q.** What about the concentration at 24 h [7] of the same compound?
**A.** Its concentration at 24 h is 1590 ng/mL.

**Q.** What about the half-life [7] of the same compound?
**A.** The half-life was 56 h.
